Source: PubChem BioAssay (NCI)
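Grown in 96-well plates, cells were treated for 48 hours with each compound at five concentrations. Insufficient inhibition: endpoint recorded as highest concentration tested. The concentration for full growth arrest is given as TGI.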

Assays:
Assay in all cases: inhibition of tumour cell growth, NCI panel, 48 h
[1] = test system: 786-0 renal
[2] = test system: A549 NSCLC
[3] = test system: ACHN renal
[4] = test system: BT-549 breast
[5] = test system: CAKI-1 renal
[6] = test system: CCRF-CEM leukemia
[7] = test system: COLO 205 colon
[8] = test system: DU-145 prostate
[9] = test system: EKVX NSCLC
[10] = test system: HCC-2998 colon
[11] = test system: HCT-116 colon
[12] = test system: HCT-15 colon
[13] = test system: HL-60(TB) leukemia
[14] = test system: HOP-62 NSCLC
[15] = test system: HS 578T breast
[16] = test system: HT29 colon
[17] = test system: K-562 leukemia
[18] = test system: KM12 colon
[19] = test system: LOX IMVI melanoma
[20] = test system: M14 melanoma
[21] = test system: MALME-3M melanoma
[22] = test system: MCF7 breast
[23] = test system: MDA-MB-435
[24] = test system: MDA-N
[25] = test system: MOLT-4 leukemia
[26] = test system: NCI-H226 lung
[27] = test system: NCI-H23 lung
[28] = test system: NCI-H522 lung
[29] = test system: NCI/ADR-RES ovarian
[30] = test system: OVCAR-3 ovarian
[31] = test system: OVCAR-4 ovarian
[32] = test system: OVCAR-5 ovarian
[33] = test system: OVCAR-8 ovarian
[34] = test system: PC-3 prostate
[35] = test system: RPMI-8226 leukemia
[36] = test system: RXF 393 renal
[37] = test system: SF-268 CNS
[38] = test system: SF-295 CNS
[39] = test system: SF-539 CNS
[40] = test system: SK-MEL-2 melanoma
[41] = test system: SK-MEL-28 melanoma
[42] = test system: SK-MEL-5 melanoma
[43] = test system: SK-OV-3 ovarian
[44] = test system: SN12C renal
[45] = test system: SNB-19 CNS
[46] = test system: SNB-75 CNS
[47] = test system: SR leukemia
[48] = test system: SW-620 colon
[49] = test system: T-47D breast
[50] = test system: TK-10 renal
[51] = test system: U251 CNS
[52] = test system: UACC-257 melanoma
[53] = test system: UACC-62 melanoma
[54] = test system: UO-31 renal
[55] = test system: A498 renal
[56] = test system: HOP-92 NSCLC
[57] = test system: IGROV1 ovarian
[58] = test system: MDA-MB-231 breast
[59] = test system: NCI-H460 lung

With `O=S1(=O)OCCOS(=O)(=O)C1F` the TGI [1] was greater than 100 µM, the TGI [2] was greater than 100 µM and the TGI [3] was greater than 100 µM. The TGI [4] was greater than 100 µM, the TGI [5] was greater than 100 µM and the TGI [6] was greater than 100 µM. It also gave a TGI [7] greater than 100 µM, a TGI [8] greater than 100 µM and a TGI [9] greater than 100 µM. For the same molecule, the TGI [10] was greater than 100 µM, the TGI [11] was greater than 100 µM and the TGI [12] was greater than 100 µM. For the same molecule, the TGI [13] was greater than 100 µM, the TGI [14] was greater than 100 µM and the TGI [15] was greater than 100 µM. It also gave a TGI [16] greater than 100 µM, a TGI [17] greater than 100 µM and a TGI [18] greater than 100 µM. It also gave a TGI [19] greater than 100 µM, a TGI [20] greater than 100 µM and a TGI [21] greater than 100 µM. The TGI [22] was greater than 100 µM, the TGI [23] was greater than 100 µM and the TGI [24] was greater than 100 µM. The TGI [25] was greater than 100 µM, the TGI [26] was greater than 100 µM and the TGI [27] was greater than 100 µM. The TGI [28] was greater than 100 µM, the TGI [29] was greater than 100 µM and the TGI [30] was greater than 100 µM. It also gave a TGI [31] greater than 100 µM, a TGI [32] greater than 100 µM and a TGI [33] greater than 100 µM. For the same molecule, the TGI [34] was greater than 100 µM, the TGI [35] was greater than 100 µM and the TGI [36] was greater than 100 µM. For the same molecule, the TGI [37] was greater than 100 µM, the TGI [38] was greater than 100 µM and the TGI [39] was greater than 100 µM. The TGI [40] was greater than 100 µM, the TGI [41] was greater than 100 µM and the TGI [42] was greater than 100 µM. It also gave a TGI [43] greater than 100 µM, a TGI [44] greater than 100 µM and a TGI [45] greater than 100 µM. For the same molecule, the TGI [46] was greater than 100 µM, the TGI [47] was greater than 100 µM and the TGI [48] was greater than 100 µM. The TGI [49] was greater than 100 µM, the TGI [50] was greater than 100 µM and the TGI [51] was greater than 100 µM. It also gave a TGI [52] greater than 100 µM, a TGI [53] greater than 100 µM and a TGI [54] greater than 100 µM.

In the case of `CCCCCCCCCC/C=C/CC(=O)SCCNC(=O)CCNC(=O)[C@@H](O)C(C)(C)COP(=O)(O)OP(=O)(O)OCC1OC(n2cnc3c(N)ncnc32)C(O)C1OP(=O)(O)O` (some centres undefined), the TGI [1] is reported as greater than 10 µM, the TGI [55] is reported as greater than 10 µM and the TGI [2] is reported as greater than 10 µM. For the same molecule, the TGI [3] was greater than 10 µM, the TGI [5] was greater than 10 µM and the TGI [6] was greater than 10 µM. For the same molecule, the TGI [7] was greater than 10 µM, the TGI [8] was greater than 10 µM and the TGI [9] was greater than 10 µM. It also gave a TGI [10] greater than 10 µM, a TGI [11] greater than 10 µM and a TGI [12] greater than 10 µM. It also gave a TGI [13] greater than 10 µM, a TGI [14] greater than 10 µM and a TGI [56] greater than 10 µM. For the same molecule, the TGI [15] was greater than 10 µM, the TGI [16] was greater than 10 µM and the TGI [57] was greater than 10 µM. The TGI [17] was greater than 10 µM, the TGI [18] was greater than 10 µM and the TGI [19] was greater than 10 µM. The TGI [20] was greater than 10 µM, the TGI [21] was greater than 10 µM and the TGI [22] was greater than 10 µM. For the same molecule, the TGI [58] was greater than 10 µM, the TGI [23] was greater than 10 µM and the TGI [24] was greater than 10 µM. For the same molecule, the TGI [25] was greater than 10 µM, the TGI [26] was greater than 10 µM and the TGI [27] was greater than 10 µM. It also gave a TGI [59] greater than 10 µM, a TGI [29] greater than 10 µM and a TGI [30] greater than 10 µM. The TGI [31] was greater than 10 µM, the TGI [32] was greater than 10 µM and the TGI [33] was greater than 10 µM. It also gave a TGI [34] greater than 10 µM, a TGI [35] greater than 10 µM and a TGI [36] greater than 10 µM. The TGI [37] was greater than 10 µM, the TGI [38] was greater than 10 µM and the TGI [39] was greater than 10 µM. The TGI [41] was greater than 10 µM, the TGI [42] was greater than 10 µM and the TGI [43] was greater than 10 µM. It also gave a TGI [44] greater than 10 µM, a TGI [45] greater than 10 µM and a TGI [46] greater than 10 µM. The TGI [48] was greater than 10 µM, the TGI [49] was greater than 10 µM and the TGI [50] was greater than 10 µM. It also gave a TGI [51] greater than 10 µM, a TGI [52] greater than 10 µM and a TGI [53] greater than 10 µM.

In the case of `S=C(c1c[nH]c2ccccc12)N1CCOCC1`, the TGI [1] is reported as greater than 100 µM, the TGI [55] is reported as greater than 100 µM and the TGI [3] is reported as greater than 100 µM. It also gave a TGI [4] greater than 100 µM, a TGI [5] greater than 100 µM and a TGI [6] greater than 100 µM. The TGI [7] was greater than 100 µM, the TGI [8] was greater than 100 µM and the TGI [9] was greater than 100 µM. For the same molecule, the TGI [11] was greater than 100 µM, the TGI [12] was greater than 100 µM and the TGI [13] was greater than 100 µM. It also gave a TGI [14] greater than 100 µM, a TGI [15] greater than 100 µM and a TGI [16] greater than 100 µM. For the same molecule, the TGI [57] was greater than 100 µM, the TGI [17] was greater than 100 µM and the TGI [18] was greater than 100 µM. For the same molecule, the TGI [19] was greater than 100 µM, the TGI [20] was greater than 100 µM and the TGI [21] was greater than 100 µM. For the same molecule, the TGI [22] was greater than 100 µM, the TGI [58] was greater than 100 µM and the TGI [23] was greater than 100 µM. For the same molecule, the TGI [24] was greater than 100 µM, the TGI [25] was greater than 100 µM and the TGI [26] was greater than 100 µM. For the same molecule, the TGI [27] was greater than 100 µM, the TGI [59] was greater than 100 µM and the TGI [29] was greater than 100 µM. It also gave a TGI [30] greater than 100 µM, a TGI [32] greater than 100 µM and a TGI [33] greater than 100 µM. For the same molecule, the TGI [34] was greater than 100 µM, the TGI [35] was greater than 100 µM and the TGI [36] was greater than 100 µM. The TGI [37] was greater than 100 µM, the TGI [38] was greater than 100 µM and the TGI [39] was greater than 100 µM. The TGI [40] was greater than 100 µM, the TGI [41] was greater than 100 µM and the TGI [42] was greater than 100 µM. The TGI [43] was greater than 100 µM, the TGI [44] was greater than 100 µM and the TGI [45] was greater than 100 µM. It also gave a TGI [46] of 74 µM, a TGI [47] greater than 100 µM and a TGI [48] greater than 100 µM. The TGI [50] was greater than 100 µM, the TGI [51] was greater than 100 µM and the TGI [52] was greater than 100 µM. For the same molecule, the TGI [53] was greater than 100 µM and the TGI [54] was greater than 100 µM.

`NC(CCCCP(=O)(O)O)C(=O)O` (centres undefined) showed a TGI [2] greater than 100 µM, a TGI [3] greater than 100 µM and a TGI [4] greater than 100 µM. For the same molecule, the TGI [5] was greater than 100 µM, the TGI [6] was greater than 100 µM and the TGI [7] was greater than 100 µM. It also gave a TGI [8] greater than 100 µM, a TGI [9] greater than 100 µM and a TGI [10] greater than 100 µM. It also gave a TGI [11] greater than 100 µM, a TGI [12] greater than 100 µM and a TGI [13] greater than 100 µM. It also gave a TGI [56] greater than 100 µM, a TGI [15] greater than 100 µM and a TGI [16] greater than 100 µM. The TGI [57] was greater than 100 µM, the TGI [17] was greater than 100 µM and the TGI [18] was greater than 100 µM. It also gave a TGI [19] greater than 100 µM, a TGI [20] greater than 100 µM and a TGI [58] greater than 100 µM. It also gave a TGI [23] greater than 100 µM, a TGI [24] greater than 100 µM and a TGI [25] greater than 100 µM. The TGI [27] was greater than 100 µM, the TGI [59] was greater than 100 µM and the TGI [28] was greater than 100 µM. The TGI [29] was greater than 100 µM, the TGI [30] was greater than 100 µM and the TGI [31] was greater than 100 µM. For the same molecule, the TGI [32] was greater than 100 µM, the TGI [33] was greater than 100 µM and the TGI [34] was greater than 100 µM. The TGI [35] was greater than 100 µM, the TGI [36] was greater than 100 µM and the TGI [37] was greater than 100 µM. The TGI [38] was greater than 100 µM, the TGI [39] was greater than 100 µM and the TGI [40] was greater than 100 µM. The TGI [41] was greater than 100 µM, the TGI [42] was greater than 100 µM and the TGI [43] was greater than 100 µM. It also gave a TGI [44] greater than 100 µM, a TGI [45] greater than 100 µM and a TGI [46] greater than 100 µM. For the same molecule, the TGI [47] was greater than 100 µM, the TGI [48] was greater than 100 µM and the TGI [49] was greater than 100 µM. The TGI [50] was greater than 100 µM, the TGI [51] was greater than 100 µM and the TGI [52] was greater than 100 µM. The TGI [53] was greater than 100 µM and the TGI [54] was greater than 100 µM.
